How the values were obtained:
Format in all cases: functional, cell-based
[1] = molecular target: T1, ATP-dependent translocase ABCB1 (Homo sapiens, UniProt P08183); assay: TP_TRANSPORTER: Western blot, LS180V cell
[2] = molecular target: T1, ATP-dependent translocase ABCB1; assay: TP_TRANSPORTER: inhibition of Rhodamine 123 transepithelial transport (basal to apical) (R123: 5 uM) in Caco-2 cells
[3] = molecular target: T1, ATP-dependent translocase ABCB1; assay: TP_TRANSPORTER: transepithelial transport (basal to apical) in Caco-2 cells

T1 sequence (P08183 whole entry): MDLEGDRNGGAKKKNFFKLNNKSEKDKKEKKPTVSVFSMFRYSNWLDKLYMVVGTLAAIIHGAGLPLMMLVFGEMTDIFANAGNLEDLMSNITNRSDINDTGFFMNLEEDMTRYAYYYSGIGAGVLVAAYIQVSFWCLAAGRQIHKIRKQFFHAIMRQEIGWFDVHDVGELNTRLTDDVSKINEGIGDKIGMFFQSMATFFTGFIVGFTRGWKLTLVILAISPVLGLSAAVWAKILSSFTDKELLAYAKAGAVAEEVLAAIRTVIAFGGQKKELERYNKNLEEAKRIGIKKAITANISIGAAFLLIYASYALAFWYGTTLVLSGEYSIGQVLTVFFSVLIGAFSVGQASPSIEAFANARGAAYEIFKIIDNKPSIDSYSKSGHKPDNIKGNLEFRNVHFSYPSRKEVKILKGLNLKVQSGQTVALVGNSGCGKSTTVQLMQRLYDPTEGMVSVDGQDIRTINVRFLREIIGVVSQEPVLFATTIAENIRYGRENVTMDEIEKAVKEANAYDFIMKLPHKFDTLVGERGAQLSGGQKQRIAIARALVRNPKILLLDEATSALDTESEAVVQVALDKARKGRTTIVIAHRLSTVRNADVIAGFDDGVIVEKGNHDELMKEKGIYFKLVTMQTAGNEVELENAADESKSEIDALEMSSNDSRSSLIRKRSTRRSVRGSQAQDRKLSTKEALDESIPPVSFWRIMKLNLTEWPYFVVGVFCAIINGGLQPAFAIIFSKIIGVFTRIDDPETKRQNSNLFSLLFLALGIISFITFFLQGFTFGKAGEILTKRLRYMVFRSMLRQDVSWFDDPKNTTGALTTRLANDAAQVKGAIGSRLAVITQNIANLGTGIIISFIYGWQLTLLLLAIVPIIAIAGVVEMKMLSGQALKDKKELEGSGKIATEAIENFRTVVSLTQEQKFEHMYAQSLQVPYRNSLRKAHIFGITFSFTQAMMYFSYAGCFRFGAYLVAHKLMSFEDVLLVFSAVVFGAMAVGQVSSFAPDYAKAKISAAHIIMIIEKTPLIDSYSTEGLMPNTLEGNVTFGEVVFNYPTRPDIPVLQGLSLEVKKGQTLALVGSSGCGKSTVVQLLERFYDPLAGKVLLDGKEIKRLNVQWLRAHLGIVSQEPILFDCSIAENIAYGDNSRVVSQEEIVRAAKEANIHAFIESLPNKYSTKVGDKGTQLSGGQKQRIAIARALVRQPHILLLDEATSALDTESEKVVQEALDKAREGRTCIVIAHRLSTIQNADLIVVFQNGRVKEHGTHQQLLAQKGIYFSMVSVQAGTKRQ

Activity [1] | IC50 [2] [µM] | Activity [3] | SMILES
inducer [+] | 4.7 | is not a substrate [-] | CCc1nn(CCCN2CCN(c3cccc(Cl)c3)CC2)c(=O)n1CCOc1ccccc1 [NEFAZODONE]
inducer [+] |  |  | O=c1n(CCCN2CCN(c3cccc(Cl)c3)CC2)nc2ccccn12 [TRAZODONE]
